These results are taken from patent US10030016B2 (Sunesis Pharmaceuticals, Inc., priority 2009, dated 2018).

Each structure is given as a SMILES string. Counter-ions that a name gives are not always drawn. Like-named read-outs stand apart in the source and are kept apart here. Bounds are passed on as bounds.

One experiment addresses PDK1 (Homo sapiens (Human), UniProt O15530). As to the kind of experiment: PDK1 kinase assay (coupled PDK1/AKT/FAM-crosstide assay, IMAP fluorescence polarization). It is filed as biochemical. The gist of the method: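 GST-tagged PDK1 (aa 51-359, 0.75 nM) was coupled to unphosphorylated GST-AKT2 140-467-PIFtide (10 nM) and 100 nM FAM-crosstide at 40 μM ATP, in Tris pH 7.2 buffer, for 30 min at 25 °C. Crosstide phosphorylation was read by IMAP fluorescence polarization (ΔmP) and fitted with a 4-parameter curve.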
On the technique in general: Polarisation of emitted light reports the rotation of a fluorescent probe.

The subject of experiment [1] is phospho-akt (Thr308) in PC-3 cells. The experiment can be described thus: Inhibition of phospho-akt (Thr308) in PC-3 cells, MSD phospho-akt 308 ELISA kit. The following applies: Homo sapiens, 2 hours, no serum, read-out: EC50. It is filed as cell-based. The gist of the method:
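Electrochemiluminescent MSD ELISA of Thr308-phosphorylated Akt after a 2 h serum-free compound exposure of PC-3 cells (15,000/well, plated overnight). Controls: DMSO (high), 5 μM wortmannin (low). Lysate binding overnight at 4 °C; detection antibody 1 h at room temperature.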
In general terms: In an ELISA, binding on a coated surface is turned into a signal by an enzyme label.

[2] abbreviates: inhibition of phospo-PDK1 in vitro.
Where [3] appears, read: inhibition of P308 Akt in PC-3 cells, MSD.
Where [4] appears, read: inhibition of P308 Akt in PC-3 cells using MSD.
Setting [5] is: PC-3, 2 h, inhibition of P308 Akt in PC-3 cells, MSD.

PDK1, sequence (O15530 51-359): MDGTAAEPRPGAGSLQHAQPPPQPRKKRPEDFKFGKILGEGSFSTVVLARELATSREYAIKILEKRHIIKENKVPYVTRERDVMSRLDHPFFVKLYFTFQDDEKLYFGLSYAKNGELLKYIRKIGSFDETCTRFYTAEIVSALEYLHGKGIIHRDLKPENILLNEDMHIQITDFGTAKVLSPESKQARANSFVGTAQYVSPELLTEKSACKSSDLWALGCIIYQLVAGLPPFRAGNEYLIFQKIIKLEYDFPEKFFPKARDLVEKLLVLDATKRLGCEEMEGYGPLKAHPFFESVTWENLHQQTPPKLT

Regarding `O=C(NCC1CCCC1)c1cccnc1NCc1cccc(-c2c[nH]c3ncccc23)c1` [Example 1.8, 2-(3-(1H-pyrrolo[2,3-b]pyridin-3-yl)benzylamino)-N-(cyclopentylmethyl)nicotinamide], the 50% inhibitory concentration (IC50) (in general, the midpoint of a concentration-inhibition curve) on PDK1 (setting [2]) fell in the range of 0.1 to 1 µM. Also, the EC50 – broadly, the concentration needed to bring the measured effect to its halfway point – in experiment [1] (setting [3]) lay within 1 to 10 µM.
For the molecule `Nc1ncc(-c2ccc(CNc3ncc(C(F)(F)F)cc3C(=O)Nc3ccc(F)cc3)cc2)nc1N1CCC[C@@H](N)C1` [Example 189, 2-{4-[5-Amino-6-((R)-3-amino-piperidin-1-yl)-pyrazin-2-yl]-benzylamino}-N-(4-fluoro-phenyl)-5-trifluoromethyl-nicotinamide], the IC50 against PDK1 (inhibition of PDK1 in vitro) was below 0.1 µM. For the same molecule, the EC50 in experiment [1] (setting [4]) is 1 to 10 µM.
For `Nc1ccc(-c2ccc(CNc3ncccc3C(=O)Nc3ccc(F)cc3)cc2)cn1` [Example 375, 2-(4-(6-aminopyridin-3-yl)benzylamino)-N-(4-fluorophenyl)nicotinamide], in that order: 1 to 5 µM and 1 to 10 µM.
For `CC(N)CCc1nc(-c2ccc(CNc3ncc(C#N)cc3C(=O)N[C@@H](C)c3ccc(F)cc3)cc2)cnc1N` (stereo partly drawn) [Example 85, 2-{4-[5-Amino-6-(3-amino-butyl)-pyrazin-2-yl]-benzylamino}-5-cyano-N-[(S)-1-(4-fluoro-phenyl)-ethyl]-nicotinamide], in that order: below 0.1 µM and below 1 µM.
For `C[C@H](NC(=O)c1nc(C#N)cnc1NCc1ccc(-c2cnc(N)c(-c3cccc(O)c3)n2)cc1)c1ccc(F)c(F)c1` [Example 235, 3-{4-[5-Amino-6-(3-hydroxy-phenyl)-pyrazin-2-yl]-benzylamino}-6-cyano-pyrazine-2-carboxylic acid [(S)-1-(3,4-difluoro-phenyl)-ethyl]-amide], in that order: below 0.1 µM and 1 to 10 µM.
For `CCOc1cnc(NCc2ccc(-c3ccc4ncnc(N)c4c3)s2)c(C(=O)NCc2ccc(F)c(F)c2)c1` [Example 8.1.3, 2-({[5-(4-aminoquinazolin-6-yl)thiophen-2-yl]methyl}amino)-N-(3,4-difluorobenzyl)-5-ethoxypyridine-3-carboxamide], the IC50 against PDK1 (setting [2]) was above 5 µM. Also, the concentration giving a half-maximal response (EC50) in experiment [1] (setting [3]) is above 10 µM.
`CN(C)/C=N/c1cnc(NCc2ccc(-c3ccc4ncnc(N)c4c3)s2)c(C(=O)NCc2ccc(F)c(F)c2)c1` [Example 8.6.5, 2-({[5-(4-aminoquinazolin-6-yl)thiophen-2-yl]methyl}amino)-N-(3,4-difluorobenzyl)-5-{[(E)-(dimethylamino)methylidene]amino}pyridine-3-carboxamide] came in with a 50% inhibitory concentration (IC50) on PDK1 (setting [2]) of 0.1 to 1 µM. The concentration giving a half-maximal response (EC50) in experiment [1] (setting [5]) fell in the range of 1 to 10 µM.
Take `COc1ccnc(NCc2ccc(-c3ccc4ncnc(N)c4c3)s2)c1C(=O)NCc1ccc(F)c(F)c1` [Ex. 7.4, 2-({[5-(4-aminoquinazolin-6-yl)thiophen-2-yl]methyl}amino)-N-(3,4-difluorobenzyl)-4-methoxypyridine-3-carboxamide]: the IC50 at PDK1 (setting [2]) was 0.1 to 1 µM. Further, the concentration giving a half-maximal response (EC50) in experiment [1] (setting [3]) is above 10 µM.
For `COc1cc(NC(=O)c2cccnc2NCc2ccc(-c3ccc4ncnc(N)c4c3)s2)cc(C(F)(F)F)c1` [Example 3.52, 2-({[5-(4-aminoquinazolin-6-yl)thiophen-2-yl]methyl}amino)-N-[3-methoxy-5-(trifluoromethyl)phenyl]pyridine-3-carboxamide (TFA salt)], in that order: above 5 µM and above 10 µM.
In the case of `C[C@H](NC(=O)c1cc(C#N)cnc1NCc1ccc(-c2cnc3[nH]c(=O)[nH]c3c2)cc1)c1ccc(F)c(F)c1` [Example 361, (S)-5-cyano-N-(1-(3,4-difluorophenyl)ethyl)-2-(4-(2-oxo-2,3-dihydro-1H-imidazo[4,5-b]pyridin-6-yl)benzylamino) nicotinamide], the IC50 on PDK1 (inhibition of PDK1 in vitro) was below 0.1 µM. Moreover, in experiment [1] (setting [4]), the half-maximal effective concentration (EC50) was below 1 µM.
Taken in the same sequence, the figures for `C[C@H](NC(=O)c1nc(C#N)cnc1NCc1ccc(-c2cnc(N)c(CCC(C)(C)N)n2)cc1)c1ccc(F)c(F)c1` [Example 84, 3-{4-[5-Amino-6-(3-amino-3-methyl-butyl)-pyrazin-2-yl]-benzylamino}-6-cyano-pyrazine-2-carboxylic acid [(S)-1-(3,4-difluoro-phenyl)-ethyl]-amide] were below 0.1 µM and below 1 µM.
For `Nc1n[nH]c2ncc(-c3ccc(CNc4ncc(C(F)(F)F)cc4C(=O)Nc4ccc(C(F)(F)F)cc4)cc3)cc12` [Example 296], in that order: below 0.1 µM and below 1 µM.
For `Nc1n[nH]c2ncc(-c3ccc(CNc4ncc(C(F)(F)F)cc4C(=O)Nc4ccncn4)cc3)cc12` [Example 303, 2-(4-(3-amino-1H-pyrazolo [3,4-b]pyridin-5-yl)benzylamino)-N-(pyrimidin-4-yl)-5-(trifluoromethyl)nicotinamide], in that order: below 0.1 µM and 1 to 10 µM.
On PDK1 (setting [2]), `COc1ccc([C@H](COc2ccc(N)c(N)c2)Nc2ncccc2C(=O)N[C@@H](C)c2ccc(F)c(F)c2)cc1` [Example 16.6, 2-((R)-2-(3,4-diaminophenoxy)-1-(4-methoxyphenyl)ethylamino)-N-((S)-1-(3,4-difluorophenyl)ethyl)nicotinamide] came in with an IC50 above 5 µM. Besides, the EC50 in experiment [1] (setting [3]) was above 10 µM.
For `C[C@H](NC(=O)c1cc(C#N)cnc1NC/C=C/c1ccc2c(c1)NC(=O)/C2=C\c1cnc[nH]1)c1ccc(F)cc1` [Example 15.4, 2-((E)-3-((Z)-3-((1H-imidazol-5-yl)methylene)-2-oxoindolin-6-yl)allylamino)-5-cyano-N-((S)-1-(4-fluorophenyl)ethyl)nicotinamide], in that order: below 0.1 µM and below 1 µM.
In turn, `C[C@H](NC(=O)c1cc(C#N)cnc1NCc1ccc(-c2cnc(N)c(CCCN3CCOCC3)n2)cc1)c1ccc(F)cc1` [Example 88, 2-{4-[5-Amino-6-(3-morpholin-4-yl-propyl)-pyrazin-2-yl]-benzyl-amino}-5-cyano-N-[(S)-1-(4-fluoro-phenyl)-ethyl]-nicotinamide] showed a half-inhibitory concentration (IC50) on PDK1 (inhibition of PDK1 in vitro) below 0.1 µM. In addition, in experiment [1] (setting [4]), the EC50 was below 1 µM.
At PDK1 (setting [2]), `C[C@H](NC(=O)c1nccnc1NCc1ccc(-c2ccc3ncnc(N)c3c2)s1)c1ccc(F)c(F)c1` [Example 3.77, 3-({[5-(4-aminoquinazolin-6-yl)thiophen-2-yl]methyl}amino)-N-[(1S)-1-(3,4-difluorophenyl)ethyl] pyrazine-2-carboxamide (TFA salt)] yielded an IC50 below 0.1 µM. Besides, the half-maximal effective concentration (EC50) in experiment [1] (setting [3]) is below 1 µM.
For `O=C(NCc1ccc(F)c(F)c1)c1cccnc1NCc1cc(-c2c[nH]c3ncc(-c4ccc[nH]4)cc23)ccn1` [Example 336], the IC50 against PDK1 (inhibition of PDK1 in vitro) is below 0.1 µM. The EC50 in experiment [1] (setting [4]) lay in the range of 1 to 10 µM.
Taken in the same sequence, the figures for `C[C@H](NC(=O)c1cc(C(F)(F)F)cnc1NCc1ccc(-c2cnc3[nH]nc(N)c3c2)cc1)c1ccc(Cl)cc1` [Example 277, 2-(4-(3-amino-1H-pyrazolo [3,4-b]pyridin-5-yl)benzylamino)-N-(1-(4-chlorophenyl)ethyl)-5-(trifluoromethyl) nicotinamide] were below 0.1 µM and below 1 µM.
For `O=C(NCc1ccc(F)c(F)c1)c1cc(C(F)(F)F)cnc1NCc1ccc(-c2cnc3[nH]c(=O)[nH]c3c2)cc1` [Example 123, N-(3,4-difluorobenzyl)-2-(4-(2-oxo-2,3-dihydro-1H-imidazo[4,5-b]pyridin-6-yl)benzylamino)-5-(trifluoromethyl) nicotinamide], in that order: below 0.1 µM and below 1 µM.
For `C[C@H](NC(=O)c1nc(C#N)cnc1NCc1ccc(-c2cn(CCN(C)C)c3ncnc(N)c23)cc1)c1ccc(F)c(F)c1` [Example 398, (S)-3-(4-(4-amino-7-(2-(dimethylamino)ethyl)-7H-pyrrolo[2,3-d]pyrimidin-5-yl)benzylamino)-6-cyano-N-(1-(3,4-difluorophenyl)ethyl)pyrazine-2-carboxamide], in that order: below 0.1 µM and 1 to 10 µM.
Molecule `C/C=C/c1cnc(NCc2ccc(-c3ccc4ncnc(N)c4c3)s2)c(C(=O)NCc2ccc(F)c(F)c2)n1` [Ex. 10.6, 3-({[5-(4-aminoquinazolin-6-yl)thiophen-2-yl]methyl}amino)-N-(3,4-difluorobenzyl)-6-[(1E)-prop-1-en-1-yl] pyrazine-2-carboxamide] registered a 50% inhibitory concentration (IC50) against PDK1 (setting [2]) of 0.1 to 1 µM. Moreover, the concentration for a half-maximal effect (EC50) in experiment [1] (setting [5]) was 1 to 10 µM.
The molecule `Cc1cc(-c2ccc(CNc3ncc(C(F)(F)F)cc3C(=O)NCc3ccc(F)c(F)c3)cc2)cnc1N` [Example 355, 2-(4-(6-amino-5-methylpyridin-3-yl)benzylamino)-N-(3,4-difluorobenzyl)-5-(trifluoromethyl)nicotinamide] returned a half-maximal inhibitory concentration (IC50) on PDK1 (inhibition of PDK1 in vitro) below 0.1 µM. Also, the EC50 in experiment [1] (setting [4]) is 1 to 10 µM.
`Cn1cc(-c2ccc(CNc3ncc(C(F)(F)F)cc3C(=O)Nc3ccc(F)cn3)cc2)c2c(N)ncnc21` [Example 338, 2-(4-(4-amino-7-methyl-7H-pyrrolo[2,3-d]pyrimidin-5-yl)-benzylamino)-N-(5-fluoropyridin-2-yl)-5-(trifluoromethyl)nicotinamide] returned an IC50 against PDK1 (inhibition of PDK1 in vitro) below 0.1 µM. The EC50 in experiment [1] (setting [4]) lay in the range of 1 to 10 µM.
At PDK1 (setting [2]), `O=C(NCc1ccc(F)c(F)c1)c1cccnc1NCc1ccc(-c2ccc3ncnc(NCCN4CCCC4)c3c2)s1` [Example 4.20, N-(3,4-difluorobenzyl)-2-(((5-(4-(2-(pyrrolidin-1-yl)ethylamino)quinazolin-6-yl)thiophen-2-yl)methyl)amino)nicotinamide] showed a half-maximal inhibitory concentration (IC50) of 0.1 to 1 µM. In addition, the EC50 in experiment [1] (setting [3]) is above 10 µM.
